Test system: Hepa-1C1C7 hepatocyte cells
Assay: Survival of pyrogallol-treated hepatocytes, NRU assay
Format: cell-based
Conditions: 500µM pyrogallol alone; 3 hours; compared to pyrogallol-untreated control
Procedure: Inflammatory liver disease is a condition where the liver cannot perform its normal functions due to liver damage, metabolic disorders, and accumulation of toxic substances. The present inventors sought to verify the therapeutic effect of the cerium oxide nanocomplex of the present invention on inflammatory liver disease. To induce the disease, Hepa-1C1C7 hepatocyte cells were treated with 500µM pyrogallol, a cytotoxic substance, to induce acute inflammatory liver disease. Simultaneously, the cells were treated with the cerium oxide nanocomplex of the present invention at concentrations ranging from 0.01 to 5µM. Three hours after treatment, the survival rate of Hepa-lclc7 cells was measured using the NRU assay, a biochemical analysis method that measures cell survival by allowing the neutral red dye to be absorbed by living cells. […] When treated with the cerium oxide nanocomplex of the present invention, survival rates of 74.55% at a minimum concentration of 0.01 µM and approximately 93.19% at a maximum concentration of 5µM were observed. This represents an increase in survival rate of at least 47.81% to a maximum of 84.78% compared to cells treated with pyrogallol alone (FIG. 13).

For `Oc1cccc(O)c1O` [pyrogallol], the “survival rate of cells” value was “approximately 50.43%”.
